In patent US20160053026A1, “METHODS FOR TREATING INFECTION BY HPV” (STC.UNM, priority 2011, published 2016):

What was measured:
[1] = tested on: HPV[+] human keratinocytes; assay: MTT cell viability assay, HPV[+] cells; assay type: cell-based; conditions: cetuximab 50, 100, 200 μg/mL; PD98059 12.5, 25, 50 μM; MTT after 72 hours (seven days)
Protocol: (§1) FIG. 7. […] The boxes indicate the same concentrations used in the FIG. 3 and FIG. 5. MTT assays were performed to assess cell viability. Error bars represent SEM (N=3).
(§2) Western blot was performed (FIG. 5) and cell viability determined with MTT assay and clonogenic assays performed as described (FIG. 7) (Meira et al., 2009, Euro J Cancer 45:1265-1273).
(§3) The proliferative capacity of MAPK inhibitor-treated cells compared to untreated cells was measured by MTT assay after 72 hours to determine the surviving fractions (FIG. 7).

[2] = tested on: HPV[−] human keratinocytes; assay: MTT cell viability assay, HPV[−] cells; assay type: cell-based; conditions: cetuximab 50, 100, 200 μg/mL; PD98059 12.5, 25, 50 μM; MTT after 72 hours (seven days)
Protocol: as §1, §2, §3

[3] = tested on: HPV16 E1^E4 early mRNA; assay: RT-qPCR of HPV16 E1^E4 early mRNA in HPV[+] HFK cells; assay type: cell-based; conditions: cetuximab 100 μg/mL or PD98059 25 μM, 24-96 hours
Protocol: HPV16 E1̂E4 early mRNA levels in response to treatment with EGFR or MAPK inhibitors. […] Total RNA harvested at indicated time points was subjected to RT and then to qPCR for β-actin and HPV16 E1̂E4 quantification. […] Data are the result of two separate experiments.
Total RNA harvested at 24 hours, 48 hours, 72 hours, or 96 hours was subjected to RT and then to qPCR for β-actin and HPV16 E1̂E4 quantification.
(§5) TURBO DNA-free Kit (Ambion) to remove co-purifying viral and cellular DNA. Reverse transcription (RT) of total RNAs (0.2-0.5 μg) was performed using random hexamer primers and ABI reagents (Applied Biosystems). For quantitative PCR (qPCR), 2 μl of each cDNA or total DNA was analyzed in triplicate using the SYBR Green I kit on the iCycler (Bio-Rad Laboratories, Inc., Hercules, Calif.).

[4] = tested on: EGFR; assay: Immunoblot for p-EGFR after EGF stimulation in HPV[+] and HPV[−] keratinocytes; assay type: cell-based, human; conditions: cetuximab 100 μg/mL or PD98059 25 μM; 10 ng/mL EGF in SFM, 5 or 15 minutes; SG3 (HPV16[+]) and NIKS (HPV[−]) cells
Protocol: (§4) FIG. 5. […] Mock=No EGF. Cell lysates were harvested and subjected to SDS-PAGE and immunoblot for p-EGFR, total EGFR, p-ERK1/2 and GAPDH, a loading control.
as §2

[5] = tested on: HPV16 viral genome; assay: qPCR of HPV16 LCR (viral genome number) in HPV[+] HFK cells; assay type: cell-based; conditions: cetuximab 100 μg/mL or PD98059 25 μM, two to six days after treatment
Excerpt: Response of HPV16 viral genome number to EGFR or MAPK Inhibitors. […] Total DNA harvested at indicated time points was subjected to qPCR for HPV16 LCR quantification. […] Data are the result of 2 separate experiments. (* p<0.05, ** p<0.01).
Total DNA harvested at two days, three days, four days, five days, or six days after treatment was subjected to qPCR (SYBR Green I kit on the BioRad iCycler) for HPV16 LCR quantification. […] Total RNAs were extracted from cells using TRIzol (Invitrogen), and processed with the
as §5

[6] = tested on: p-ERK1/2; assay: Immunoblot for p-ERK1/2 (MAPK signaling) after EGF stimulation in HPV[+] and HPV[−] keratinocytes; assay type: cell-based, human; conditions: cetuximab 100 μg/mL or PD98059 25 μM; 10 ng/mL EGF in SFM, 5 or 15 minutes; SG3 (HPV16[+]) and NIKS (HPV[−]) cells
Protocol: as §4, §2

For COc1cccc(-c2cc(=O)c3ccccc3o2)c1N [PD98059], the “viability of HPV[+] cells (MTT)” value [1] was “dose-dependent decrease in viability”, the “viability of HPV[−] cells (MTT)” value [2] was “dose-dependent decrease in viability” and the “HPV16 E1^E4 transcript levels” value [3] was “decrease is statistically significant after 48 hours of treatment”. For the same compound, the “EGFR activation (p-EGFR)” value [4] was “did not affect EGFR activation”, the “HPV16 genome levels (LCR qPCR) compared to mock treated” value [5] was “statistically significant decrease in HPV16 genome levels” and the “downstream / MAPK signaling (p-ERK1/2)” value [6] was “blocked MAPK signaling”.
